In publication PMC4467156, “A new chemical inhibitor of angiogenesis and tumorigenesis that targets the VEGF signaling pathway upstream of Ras” (Oncotarget, 2015):

What was measured:
Met = Met (Homo sapiens, UniProt P08581); experiment: In vitro kinase assay Met; type: biochemical; settings: concentrations up to 50 μM
Procedure: (§1) We first wondered whether COB223 required to be internalized to exert its biological effect. For this, we synthesized a covalent complex between BSA and COB223 and purified it. […] In vitro kinase assays were performed with a panel of purified protein-kinases involved in mitogenic signaling, including VEGFR2, FGFR1, FGFR2, PDGFRß, Met, Raf, MEK1, ERK1, ERK2, PKCα, PKCβI, PKCβII, PKCζ as indicated in Table 2. […] We then analyzed the effect of COB223 on VEGF-induced phosphorylations of VEGFR2, MEK and ERK1/2 (Figure 9). […] (Figure 9A, 9B). […] It was also specific of the p42/p44 MAP kinase pathway as activation of p38 MAP kinase phosphorylation in HUVEC cells by VEGF or serum was unaffected by COB223 (data not shown). The activation of src phosphorylation by VEGF in HUVECs was also unaffected by COB223 (data not shown).

3T3 cells = experiment: 3H-thymidine incorporation, 3T3; type: cell-based; settings: 3T3 fibroblasts
Procedure: Cells were treated with molecules in complete medium. After 22 h, 1 μCi per well H^3 thymidine was added for 2 hours. Cells are then fixed by 10% trichloroacetic acid and harvested with 0.2N NaOH, 1% SDS. Radioactivity was measured in a beta counter.

PDGFRß = PDGFRß (Homo sapiens, UniProt P09619); experiment: In vitro kinase assay PDGFRß; type: biochemical; settings: concentrations up to 50 μM
Procedure: as §1

[1] = test system: embryoid bodies derived from mouse embryonic stem cells; experiment: Vascular sprouting of embryoid bodies into collagen gels; type: cell-based; settings: 12.5 μM COB223 added at day 6
Procedure: CJ7 cells (1000 cells/well; 12-well plates) were allowed to differentiate in collagen gels in Iscove's medium containing Glutamax (Iscove's modified Dulbecco's medium; Invitrogen) supplemented with 1.2 mg/mL collagen I (BD Biosciences, Bedford, MA), 15% fetal calf serum (Invitrogen), 450 μM monothioglycerol (Sigma-Aldrich), 10 μg/mL insulin (Roche Diagnostics, Basel, Switzerland), 50 U/mL penicillin and 50 μg/mL streptomycin (Invitrogen), as previously described. A cocktail of growth factors was also added containing 50 ng/mL human VEGF-A (AbCys) and 100 ng/mL human FGF-2 (a generous gift from Dr. A. Baird, Whittier Institute, La Jolla, CA). At day 6, molecules were added with a novel addition of 50 ng/mL human VEGF-A and 100 ng/mL human FGF-2. Differentiation was allowed during 11 days.
Collagen gels containing EBs were dehydrated and fixed in 4% paraformaldehyde during 15 min at room temperature. […] For quantitation of endothelial sprouting, images were captured with a digital camera and measurement of the total length of endothelial sprouts was achieved by morphometric analysis using ImageJ software.

FGFR2 = FGFR2 (Homo sapiens, UniProt P21802); experiment: In vitro kinase assay FGFR2; type: biochemical; settings: concentrations up to 50 μM
Procedure: as §1

PKCα = PKCα (Homo sapiens, UniProt P17252); experiment: In vitro kinase assay PKCα; type: biochemical; settings: concentrations up to 50 μM
Procedure: as §1

Sequence of PDGFRß (P09619 33-1106, species assumed): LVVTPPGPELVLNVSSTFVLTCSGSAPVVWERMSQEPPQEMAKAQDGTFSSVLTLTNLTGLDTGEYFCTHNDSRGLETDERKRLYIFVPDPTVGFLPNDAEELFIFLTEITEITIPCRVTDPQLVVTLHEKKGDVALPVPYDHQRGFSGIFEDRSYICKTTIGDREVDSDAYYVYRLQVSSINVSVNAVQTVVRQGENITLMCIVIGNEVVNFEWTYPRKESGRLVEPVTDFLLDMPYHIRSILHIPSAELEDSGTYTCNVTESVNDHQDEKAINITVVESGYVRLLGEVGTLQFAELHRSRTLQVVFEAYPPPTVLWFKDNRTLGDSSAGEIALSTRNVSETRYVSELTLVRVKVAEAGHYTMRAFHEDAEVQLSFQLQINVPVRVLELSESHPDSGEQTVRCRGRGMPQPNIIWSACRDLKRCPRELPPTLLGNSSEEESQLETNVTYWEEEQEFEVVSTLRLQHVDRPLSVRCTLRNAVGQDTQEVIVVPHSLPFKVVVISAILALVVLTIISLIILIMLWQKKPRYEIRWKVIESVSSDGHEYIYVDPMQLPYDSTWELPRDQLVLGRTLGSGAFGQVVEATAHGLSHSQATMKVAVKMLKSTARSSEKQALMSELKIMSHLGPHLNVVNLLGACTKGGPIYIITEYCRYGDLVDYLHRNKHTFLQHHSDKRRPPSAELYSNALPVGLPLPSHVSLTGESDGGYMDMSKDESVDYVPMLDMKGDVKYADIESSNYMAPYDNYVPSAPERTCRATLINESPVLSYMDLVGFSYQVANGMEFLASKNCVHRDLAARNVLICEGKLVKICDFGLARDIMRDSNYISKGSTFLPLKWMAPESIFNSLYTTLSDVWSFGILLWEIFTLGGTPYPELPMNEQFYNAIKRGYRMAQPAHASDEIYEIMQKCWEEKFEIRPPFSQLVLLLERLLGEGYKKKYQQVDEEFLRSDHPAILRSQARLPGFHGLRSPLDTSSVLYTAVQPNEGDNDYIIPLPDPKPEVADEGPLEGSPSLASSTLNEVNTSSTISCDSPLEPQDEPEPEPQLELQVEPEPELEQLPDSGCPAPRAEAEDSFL
Sequence of Met (P08581 25-1390): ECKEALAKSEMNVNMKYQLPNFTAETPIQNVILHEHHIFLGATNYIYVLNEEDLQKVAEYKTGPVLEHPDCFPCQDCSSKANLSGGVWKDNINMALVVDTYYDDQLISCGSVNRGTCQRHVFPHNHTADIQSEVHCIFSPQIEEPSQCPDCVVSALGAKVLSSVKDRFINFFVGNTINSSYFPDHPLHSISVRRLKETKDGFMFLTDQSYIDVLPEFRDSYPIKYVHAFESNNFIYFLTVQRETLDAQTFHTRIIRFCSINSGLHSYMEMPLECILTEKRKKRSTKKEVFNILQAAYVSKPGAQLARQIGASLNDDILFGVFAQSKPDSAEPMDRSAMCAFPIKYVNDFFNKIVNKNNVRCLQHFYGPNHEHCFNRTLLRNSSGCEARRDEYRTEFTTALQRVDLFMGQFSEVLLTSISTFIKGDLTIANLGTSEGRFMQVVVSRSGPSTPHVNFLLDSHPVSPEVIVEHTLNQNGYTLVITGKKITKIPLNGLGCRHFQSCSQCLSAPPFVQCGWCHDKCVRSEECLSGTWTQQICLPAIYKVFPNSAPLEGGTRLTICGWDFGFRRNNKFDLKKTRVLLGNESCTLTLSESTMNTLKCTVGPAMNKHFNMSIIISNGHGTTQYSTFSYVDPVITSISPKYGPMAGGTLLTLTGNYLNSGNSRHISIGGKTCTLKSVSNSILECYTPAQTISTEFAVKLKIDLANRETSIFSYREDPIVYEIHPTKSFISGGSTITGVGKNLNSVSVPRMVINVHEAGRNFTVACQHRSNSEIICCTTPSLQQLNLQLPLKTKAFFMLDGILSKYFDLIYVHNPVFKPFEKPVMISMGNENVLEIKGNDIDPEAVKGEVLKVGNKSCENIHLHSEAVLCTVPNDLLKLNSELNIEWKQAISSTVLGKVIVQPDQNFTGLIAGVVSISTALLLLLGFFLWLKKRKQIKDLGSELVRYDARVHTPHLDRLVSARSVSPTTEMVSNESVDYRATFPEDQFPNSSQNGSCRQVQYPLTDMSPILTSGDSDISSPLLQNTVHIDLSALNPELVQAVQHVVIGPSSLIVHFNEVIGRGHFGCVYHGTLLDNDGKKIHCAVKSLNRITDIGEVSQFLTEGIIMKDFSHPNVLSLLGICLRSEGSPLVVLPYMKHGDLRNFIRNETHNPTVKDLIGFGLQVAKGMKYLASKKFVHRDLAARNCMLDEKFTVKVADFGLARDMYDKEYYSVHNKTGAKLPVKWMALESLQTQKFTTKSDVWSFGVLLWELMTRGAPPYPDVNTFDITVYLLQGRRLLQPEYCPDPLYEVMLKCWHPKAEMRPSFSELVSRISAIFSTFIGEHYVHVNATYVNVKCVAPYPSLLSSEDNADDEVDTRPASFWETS
Sequence of FGFR2 (P21802 22-821, species assumed): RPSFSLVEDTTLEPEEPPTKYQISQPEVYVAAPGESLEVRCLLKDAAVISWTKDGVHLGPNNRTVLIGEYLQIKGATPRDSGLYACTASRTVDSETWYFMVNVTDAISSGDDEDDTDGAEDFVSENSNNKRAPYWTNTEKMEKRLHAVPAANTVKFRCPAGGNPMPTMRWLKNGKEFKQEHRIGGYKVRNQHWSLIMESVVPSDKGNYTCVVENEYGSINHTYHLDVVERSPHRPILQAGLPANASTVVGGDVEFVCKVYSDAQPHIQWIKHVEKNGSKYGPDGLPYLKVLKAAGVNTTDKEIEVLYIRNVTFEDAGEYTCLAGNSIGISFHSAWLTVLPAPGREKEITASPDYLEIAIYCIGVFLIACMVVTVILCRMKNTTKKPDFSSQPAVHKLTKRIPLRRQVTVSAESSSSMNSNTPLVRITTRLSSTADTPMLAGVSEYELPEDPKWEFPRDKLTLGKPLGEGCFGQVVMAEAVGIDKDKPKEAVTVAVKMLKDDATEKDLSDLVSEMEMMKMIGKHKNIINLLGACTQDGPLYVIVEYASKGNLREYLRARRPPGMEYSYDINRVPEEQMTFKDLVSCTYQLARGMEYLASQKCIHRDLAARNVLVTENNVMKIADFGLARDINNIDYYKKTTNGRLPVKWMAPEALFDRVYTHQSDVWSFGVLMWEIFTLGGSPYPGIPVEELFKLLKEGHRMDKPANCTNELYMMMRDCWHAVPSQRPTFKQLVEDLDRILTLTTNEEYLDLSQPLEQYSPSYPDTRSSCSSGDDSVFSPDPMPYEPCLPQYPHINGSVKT

CN(C)c1cccc2c(S(=O)(=O)NCCCN3CCN(CCCNC(=O)OC(C)(C)C)CC3)cccc12 [COB223, tert-Butyl 3-(4-(3-(5-(dimethylamino)naphthalene-1-sulfonamido)propyl)piperazin-1-yl) propylcarbamate]
kinase inhibition (Met): None of them was inhibited | effect on cell proliferation (3T3 cells): no effect | kinase inhibition (PDGFRß): None of them was inhibited | endothelial sprouting (CD31 immunostaining) [1]: complete inhibition | kinase inhibition (FGFR2): None of them was inhibited | kinase inhibition (PKCα): None of them was inhibited
